According to patent US20250073235A1, “INHIBITION OF MAST CELL TUMOR NECROSIS FACTOR FOR THERAPEUTIC USE” (The University of Southern Mississippi, priority 2023, published 2025):
Entries after “also recorded” stand apart in the source; their conditions may differ.

Columns and labels:
RBL-2H3 cells [1] = experiment: total TNF protein level (ELISA), IgE/TNP-BSA activated mast cells; format: cell-based, rat; conditions: for total TNF level, normalized against DMSO: FIG. 19; for overall level of TNF (total TNF protein): 1 hour
Description: (§1) Sub-confluent RBL-2H3 cells (85%) grown on a 6-well plate were sensitized with 0.5 μg/ml anti-TNP IgE (BD Biosciences) and activated by 25 ng/ml TNP^(26)-BSA (Santa-Cruz) in RPMI 1640 (Corning) containing 0.1% BSA as described. The supernatant (around 1 ml) was collected from resting (no exposure to IgE) and activated (IgE and TNP-BSA) cells respectively and centrifuged at 500 g for 5 min at 4° C. to clear any cell debris. In the meantime, the cells attached to the bottom of the 6-well plates were lysed in 1 ml of cell culture medium, RPMI 1640 containing 0.1% BSA and 0.5% Triton X-100 for 5 min at RT. The lysate was centrifuged at 15,000 g for 5 min at 4° C. to clear any Triton-insoluble biomass. The cleared supernatant or lysate was separated into 3 aliquots: 800 μl were lyophilized for TNF assay; 50 μl were stored at −20° C. for serotonin and histamine assays; and the rest was used immediately for β-hexosaminidase assay.
(§2) β-hexosaminidase activity and TNF protein level were measured as commonly used in the art. To quantify histamine with an Enzyme Immunoassay (EIA) kit (EA213/96; Eagle Biosciences), the supernatant and cell lysates were diluted 100-fold in RPMI. Fifty μl of the diluted samples were then subject to acylation reaction and ELISA by following the manufacturer's instructions. To measure the level of serotonin, the supernatant and cell lysates were diluted 1:625 fold with standard buffer (EA630/96; Eagle Biosciences), 20 μl of which were subject to acylation and subsequent ELISA according to the manufacturer's instructions.
RBL-2H3 cells and derivatives growing in 6-well plates were sensitized for 3 h with 0.5 μg/mL mouse anti-TNP ([…]) IgE (BD Pharmingen) and stimulated with 25 ng/mL of TNP(26)-BSA (Santa Cruz). β-hexosaminidase activities and TNF levels in the supernatant and the cell lysates were quantified as previously described. […]. Reverse transcription and PCRs RBL-2H3 cells (˜40% confluent) cultured in a 24-well plate were treated with 250 μL of 0.25% Trypsin-EDTA (Gibco) that was subsequently neutralized with 750 μL of complete medium. About […] were collected for RT-qPCR (quantitative PCR) using TaqMan Gene Expression Cells-to-CT Kit (ThermoFisher Scientific) according to the manufacturer's instructions. Fluorescently labeled, target-specific probes ((3-actin: Rn00667869_ml; TNFR1: Rn01492348_ml; and TNFR2: Rn00709830_ml) were purchased from Thermofisher Scientific. The Cq values of TNFRs were standardized against that of β-actin utilizing the Bio-Rad CFX Maestro software and then the relative levels of mRNA expression were determined. For electrophoresis, TNFR1 was amplified from cDNA (prepared with the same TaqMan Gene Expression Cells-to-CT Kit described earlier) using […]-3′ (SEQ ID NO: 11) and 5′-[…]-3′ (SEQ ID NO: 12) as forward and reverse primers, whereas TNFR2 was amplified using 5′-[…]-3′ (SEQ ID NO: 13) and 5′-[…]-3′ (SEQ ID NO: 14) as forward and reverse primers. PCR was conducted in a 20 μL mixture containing 1× One Taq Master Mix (NEB) and 200 nM of primers. Where specified, 1 μL of rat universal cDNA (BioChain) was used as positive control.

RBL-2H3 cells [2] = experiment: β-hexosaminidase secretion assay, IgE/TNP-BSA activated mast cells; format: cell-based, rat; conditions: for β-hexosaminidase secretion (% of total activity in the supernatant), normalized against DMSO: inhibitor added to sensitized RBL-2H3 cells 30 min before TNP-BSA, FIG. 19
Description: as §1, §2
(§3) The absolute value for the exocytosis of each mediator (V) was expressed as the percentage of the signal released into the supernatant (MS) relative to the total signal in the supernatant and in the lysate [V=MS/(MS+ML)%]. The value for IgE/allergen-dependent exocytosis was calculated by subtracting the value of the activated samples with the value of the resting samples (VE=VA−VR).
(§4) RBL-2H3 cells and derivatives growing in 6-well plates were sensitized for 3 h with 0.5 μg/mL mouse anti-TNP ([…]) IgE (BD Pharmingen) and stimulated with 25 ng/mL of TNP(26)-BSA (Santa Cruz). β-hexosaminidase activities and TNF levels in the supernatant and the cell lysates were quantified as previously described. […]. Reverse transcription and PCRs RBL-2H3 cells (˜40% confluent) cultured in a 24-well plate were treated with 250 μL of 0.25% Trypsin-EDTA (Gibco) that was subsequently neutralized with 750 μL of complete medium. About […] were collected for RT-qPCR (quantitative PCR) using TaqMan Gene Expression Cells-to-CT Kit (ThermoFisher Scientific) according to the manufacturer's instructions. […]

RBL-2H3 cells [3] = experiment: TNF secretion assay (ELISA), IgE/TNP-BSA activated mast cells; format: cell-based, rat; conditions: for TNF secretion (% of total TNF in the supernatant), normalized against DMSO: inhibitor added to sensitized RBL-2H3 cells 30 min before TNP-BSA, FIG. 19
Description: as §1, §2, §3, §4

activated mast cells [4] = conditions: reference [31]; cited from earlier work
activated mast cells [5] = conditions: reference [31]; cited from earlier work; remark: listed apart in the source
[6] = inhibitor added to sensitized RBL-2H3 cells 30 min before TNP-BSA

## CCOc1cc(C(=O)N2CCC(N3CCN(C)CC3)CC2)ccc1Nc1ncc2c(n1)N(S(C)(=O)=O)c1ccccc1C(=O)N2C [AX-15836]
RBL-2H3 cells [1]; inhibitor added to sensitized RBL-2H3 cells 30 min before TNP-BSA, statistically significant, FIG. 19B
  reduction in total TNF level: 10%

## Cc1ccc(-n2nc(C(C)(C)C)cc2NC(=O)Nc2ccc(OCCN3CCOCC3)c3ccccc23)cc1 [Doramapimod/BIRB 796, Doramapimod]
RBL-2H3 cells [2]
  β-hexosaminidase secretion (% of total activity in the supernatant), normalized against DMSO: did not seem to affect exocytosis
RBL-2H3 cells [3]
  TNF secretion (% of total TNF in the supernatant), normalized against DMSO: did not seem to affect exocytosis
RBL-2H3 cells [1]; [6]
  total TNF level, normalized against DMSO: did not seem to affect exocytosis or significantly reduce TNF proliferation

## Cc1cc(NC(=O)c2cccc(NC(=O)/C=C/CN(C)C)c2)ccc1Nc1nccc(-c2cccnc2)n1 [JNK-IN-8]
RBL-2H3 cells [2]
  β-hexosaminidase secretion (% of total activity in the supernatant), normalized against DMSO: without impacting
RBL-2H3 cells [3]
  TNF secretion (% of total TNF in the supernatant), normalized against DMSO: without impacting
RBL-2H3 cells [1]; [6]
  total TNF level, normalized against DMSO: diminished TNF level drastically

## CC#CCOc1ccc(S(=O)(=O)CC(c2ccc(CNS(C)(=O)=O)cc2)N(O)C=O)cc1 (centres unmarked) [KP-457]
RBL-2H3 cells [2]; sensitized RBL-2H3 cells, inhibitor added along with TNP-BSA, concentrations between 0.3 M and 10 μM, 1 hour, FIG. 18A
  exocytosis of β-hexosaminidase: did not seem to affect
RBL-2H3 cells [3]; sensitized RBL-2H3 cells, inhibitor added along with TNP-BSA, concentrations between 0.3 M and 10 μM, 1 hour, FIG. 18B
  amount of sTNF protein released into the supernatant: significantly reduced
RBL-2H3 cells [1]; allergen-triggered RBL-2H3 cells, inhibitor added along with TNP-BSA, FIG. 18C
  overall level of TNF (total TNF protein): inhibited the overall level of TNF; also recorded: TNF production is diminished

## Cn1nccc1Nc1nccc(-c2ccn([C@H](CO)c3ccc(Cl)c(F)c3)c(=O)c2)n1 [Ravoxertinib/GDC-0994, Ravoxertinib]
RBL-2H3 cells [2]
  β-hexosaminidase secretion (% of total activity in the supernatant), normalized against DMSO: inhibited
RBL-2H3 cells [3]
  TNF secretion (% of total TNF in the supernatant), normalized against DMSO: inhibited
RBL-2H3 cells [1]; [6]
  total TNF level, normalized against DMSO: inhibited

## CN(C)CCC=C1c2ccccc2CCc2ccccc21 [amitriptyline]
Activated mast cells [4]
  serotonin release: without any influence
Activated mast cells [5]
  histamine release: specifically inhibit

B1: sTNFR1: soluble TNF receptor 1 (Genscript), sequesters secreted TNF (protein, UniProt P19438 30-211, looked up)
extracellular domain: LVPHLGDREKRDSVCPQGKYIHPQNNSICCTKCHKGTYLYNDCPGPGQDTDCRECESGSFTASENHLRHCLSCSKCRKEMGQVEISSCTVDRDTVCGCRKNQYRHYWSENLFQCFNCSLCLNGTVHLSCQEKQNTVCTCHAGFFLRENECVSCSNCKKSLECTKLCLPQIENVKGTEDSGTT
modifications: extracellular domain
RBL-2H3 cells [1]; sensitized RBL-2H3 cells incubated with sTNFR1 along with TNP-BSA, FIG. 17A
  overall level of TNF (total TNF protein): inhibited the overall level of TNF in a concentration dependent fashion
RBL-2H3 cells [1]; sensitized RBL-2H3 cells incubated with sTNFR1 along with TNP-BSA, FIG. 17A, listed as soluble TNFR1
  overall level of TNF (total TNF protein): inhibits antigen-elicited TNF production in a dosage-dependent fashion
